The values below come from US20260007680A1, “Compounds and Their Use as PDE4 Activators” (Mironid Limited, priority 2022, published 2026).

SMILES strings stand for the structures.

The subject of one test is m-IMCD3 cells. Description: Inhibition of PGE2-stimulated in vitro cyst formation in 3D culture of m-IMCD3 cells (Experiment 4). It counts as cell-based, mouse. Particulars: 3D culture. How it is done:
HEK 293 and MDCK cells (Public Health England, Cell Culture Collections) were maintained in Dulbecco's Modified Eagle's Medium (DMEM) supplemented with 10% (v/v) fetal bovine serum (FBS) (Seralab), 2 mM L-glutamine and 100 U/ml penicillin streptomycin cocktail (ThermoFisher); termed complete media. Clonal HEK 293 cell lines were maintained in complete media supplemented with 0.6 mg/mL G418 (Enzo Life Sciences). Mouse inner medullary collecting duct (m-IMCD3) cells [American Type Culture Collection (ATCC)] were maintained in media consisting of DMEM/Hams F-12 50/50 Mix (DMEM F12; Corning) supplemented with penicillin streptomycin cocktail (100 U/ml) and FBS (10% v/v) (DMEM F12-10% FBS).
The mouse Inner Medullary Collecting Duct cell line (m-IMCD3) spontaneously forms cystic spheroids in 3D culture with a Type 1 collagen/Matrigel extracellular matrix. This process can be stimulated with agents which raise intracellular cAMP and is used as an in vitro model for the formation of cystic structures in the kidneys of patients with ADPKD.
Rat Collagen I (Fisher Scientific) is prepared on ice by neutralising with 1 M NaOH and diluting with a 2×volume of DMEM/F12+10% FBS. This is mixed 1:1.1 with ice cold Matrigel (Corning) for coating plates (coating mix), and 1:0.93 with Matrigel for cell plating (plating mix).
The assay is conducted in the wells of a 96-well plate culture dish using a total volume of 130 μL of collagen/Matrigel/DMEM F12-10% FBS suspension in growth media for each matrix plug per individual well. Initially, 30 μL of collagen/Matrigel/DMEM F12-10% FBS (coating mix) is added into the well of a 96 well plate and the collagen is set to a gel by incubating at 37° C. for at least 15 minutes. A second layer of 100 μL collagen/Matrigel suspension (plating mix) containing m-IMCD3 cells (2.75×10^6 m-IMCD3 cells per 96-well plate) is layered over the coating mix and the collagen/Matrigel/cell mix again set to a gel by incubating at 37° C. Cell cultures are maintained at 37° C. in an atmosphere of 5% CO2, 95% air.
Between 18 and 24 h after plating, test compound(s) as DMSO stock solutions [0.1% (v/v) final DMSO concentration] and PGE2 (100 nM final concentration) in DMEM F12-10% FBS are added in quadruplicate wells per condition. Media, together with the test compound and PGE2 are replenished after 2 or 3 days. After 6 days of culture z stack images of the wells are captured using the Nikon Eclipse Ti2-E microscope. Nikon General Analysis software is used to measure the following parameters in each well: the mean cyst area, the number of cysts, and the total cyst area.
PDE4 long form activators inhibited in vitro cyst formation in m-IMCD3 cells. Data are shown in FIG. 2 and Table 4 as mean cyst area (%), compared to 100% for (DMSO+PGE2) and 0% for DMSO control.
For `CCN1CCC(c2nc3ccc(C(=O)N[C@H]4CCOc5ccccc54)cn3n2)CC1` [Example 51, (S)—N-(chroman-4-yl)-2-(1-ethylpiperidin-4-yl)-[1,2,4]triazolo[1,5-a]pyridine-6-carboxamide], the “inhibition of PGE2-stimulated cyst formation in m-IMCD3 cells (FIG. 2, text)” value is on record as “concentration-dependent inhibition”.

Still in this test, the particulars now being: Mus musculus, mIMCD3, 144 h, 10 μM test compound, mean cyst area compared to 100% for (DMSO + PGE2) and 0% for DMSO control, read-out: % Cyst area* after incubation with 10 μM test compound.
For the compound `Cc1ccncc1-c1nc2cc(C(=O)N[C@H]3CCOc4ccccc43)ccc2[nH]1` [Example 1, (S)—N-(chroman-4-yl)-2-(4-methylpyridin-3-yl)-1H-benzo[d]imidazole-5-carboxamide], the activity at 10 µM turned out to be 26%.

Regarding `Cc1ncccc1-c1nc2cc(C(=O)N[C@H]3CCOc4ccccc43)ccc2[nH]1` [Example 3, (S)—N-(chroman-4-yl)-2-(2-methylpyridin-3-yl)-1H-benzo[d]imidazole-5-carboxamide], the activity at 10 µM stood at 20%.

With `Cc1ccc(-c2nc3cc(C(=O)N[C@H]4CCOc5ccccc54)ccc3n2C)cn1` [Example 21, (S)—N-(chroman-4-yl)-1-methyl-2-(6-methylpyridin-3-yl)-1H-benzo[d]imidazole-5-carboxamide], the activity at 10 µM came out at 3%.

On to `Cc1ncccc1-c1nc2cc(C(=O)N[C@H]3CCOc4ccccc43)ccc2n1C` [Example 22, (S)—N-(chroman-4-yl)-1-methyl-2-(2-methylpyridin-3-yl)-1H-benzo[d]imidazole-5-carboxamide], for which the activity at 10 µM was found to be 18%.

As to `Cc1cncc(-c2nc3cc(C(=O)N[C@H]4CCOc5ccccc54)ccc3n2C)c1` [Example 23, (S)—N-(chroman-4-yl)-1-methyl-2-(5-methylpyridin-3-yl)-1H-benzo[d]imidazole-5-carboxamide], the activity at 10 µM turned out to be 12%.

As for `Cn1c(-c2cccnc2)nc2cc(C(=O)N[C@H]3CCOc4ccccc43)ccc21` [Example 24, (S)—N-(chroman-4-yl)-1-methyl-2-(pyridin-3-yl)-1H-benzo[d]imidazole-5-carboxamide], the activity at 10 µM stood at 21%.

For `Cn1c(N2CCNCC2)nc2ccc(C(=O)N[C@H]3CCOc4ccccc43)cc21` [Example 31, (S)—N-(chroman-4-yl)-1-methyl-2-(piperazin-1-yl)-1H-benzo[d]imidazole-6-carboxamide], the activity at 10 µM worked out at 3%.

`Cn1c(N2CCNCC2)nc2cc(C(=O)N[C@H]3CCOc4ccccc43)ccc21` [Example 33, (S)—N-(chroman-4-yl)-1-methyl-2-(piperazin-1-yl)-1H-benzo[d]imidazole-5-carboxamide]: the activity at 10 µM is 19%.

With `O=C(N[C@H]1CCOc2ccccc21)c1ccc2nc(N3CCNCC3)nn2c1` [Example 40, (S)—N-(chroman-4-yl)-2-(piperazin-1-yl)-[1,2,4]triazolo[1,5-a]pyridine-6-carboxamide], the activity at 10 µM turned out to be 11%.

For `CCN1CCN(c2nc3ccc(C(=O)N[C@H]4CCOc5ccccc54)cn3n2)CC1` [Example 45, (S)—N-(chroman-4-yl)-2-(4-ethylpiperazin-1-yl)-[1,2,4]triazolo[1,5-a]pyridine-6-carboxamide], the activity at 10 µM came to 15%.

In the case of `CC(C)N1CCN(c2nc3ccc(C(=O)N[C@H]4CCOc5ccccc54)cn3n2)CC1` [Example 46, (S)—N-(chroman-4-yl)-2-(4-isopropylpiperazin-1-yl)-[1,2,4]triazolo[1,5-a]pyridine-6-carboxamide], the activity at 10 µM stood at 4%.

As to `O=C(N[C@H]1CCc2ccccc21)c1ccc2nc(N3CCNCC3)nn2c1` [Example 48, (S)—N-(2,3-dihydro-1H-inden-1-yl)-2-(piperazin-1-yl)-[1,2,4]triazolo[1,5-a]pyridine-6-carboxamide], the activity at 10 µM is 22%.

For `CN1CCC(c2nc3ccc(C(=O)N[C@H]4CCOc5ccccc54)cn3n2)CC1` [Example 50, (S)—N-(chroman-4-yl)-2-(1-methylpiperidin-4-yl)-[1,2,4]triazolo[1,5-a]pyridine-6-carboxamide], the activity at 10 µM was determined as 6%.

Take `CCN1CCC(c2nc3ccc(C(=O)N[C@H]4CCOc5ccccc54)cn3n2)CC1` [Example 51, (S)—N-(chroman-4-yl)-2-(1-ethylpiperidin-4-yl)-[1,2,4]triazolo[1,5-a]pyridine-6-carboxamide]: the activity at 10 µM turned out to be 6%.

For the compound `Cc1ncccc1-c1nc2cc(C(=O)N[C@H]3CCOc4ccccc43)ccn2n1` [Example 52, (S)—N-(chroman-4-yl)-2-(2-methylpyridin-3-yl)-[1,2,4]triazolo[1,5-a]pyridine-7-carboxamide], the activity at 10 µM worked out at 19%.

Turning to `CN1CCN(c2nc3cc(C(=O)N[C@H]4CCOc5ccccc54)ccn3n2)CC1` [Example 56, (S)—N-(chroman-4-yl)-2-(4-methylpiperazin-1-yl)-[1,2,4]triazolo[1,5-a]pyridine-7-carboxamide], the activity at 10 µM was determined as 14%.

With `O=C(N[C@H]1CCOc2ccccc21)c1ccn2nc(N3CCCCC3)nc2c1` [Example 59, (S)—N-(chroman-4-yl)-2-(piperidin-1-yl)-[1,2,4]triazolo[1,5-a]pyridine-7-carboxamide], the activity at 10 µM was determined as 26%.

As for `CCN1CCN(c2nc3cc(C(=O)N[C@H]4CCOc5ccccc54)ccn3n2)CC1` [Example 60, (S)—N-(chroman-4-yl)-2-(4-ethylpiperazin-1-yl)-[1,2,4]triazolo[1,5-a]pyridine-7-carboxamide], the activity at 10 µM is 18%.

In the case of `CC(C)N1CCN(c2nc3cc(C(=O)N[C@H]4CCOc5ccccc54)ccn3n2)CC1` [Example 61, (S)—N-(chroman-4-yl)-2-(4-isopropylpiperazin-1-yl)-[1,2,4]triazolo[1,5-a]pyridine-7-carboxamide], the activity at 10 µM turned out to be 10%.

`O=C(N[C@H]1CCc2ccccc21)c1ccn2nc(N3CCNCC3)nc2c1` [Example 62, (S)—N-(2,3-dihydro-1H-inden-1-yl)-2-(piperazin-1-yl)-[1,2,4]triazolo[1,5-a]pyridine-7-carboxamide]: the activity at 10 µM was 0%.

For the compound `CN1CCN(c2nc3cc(C(=O)N[C@H]4CCc5ccccc54)ccn3n2)CC1` [Example 64, (S)—N-(2,3-dihydro-1H-inden-1-yl)-2-(4-methylpiperazin-1-yl)-[1,2,4]triazolo[1,5-a]pyridine-7-carboxamide], the activity at 10 µM was determined as 1%.

`O=C(NC1CCCC1)c1ccc2nc(N3C4CCC3CNC4)cn2c1` [Example 67, 2-(3,8-diazabicyclo[3.2.1]octan-8-yl)-N-cyclopentylimidazo[1,2-a]pyridine-6-carboxamide]: the activity at 10 µM was 27%.

For `O=C(N[C@H]1CCOc2ccccc21)c1cnc2cc(N3CCNCC3)nn2c1` [Example 68, (S)—N-(chroman-4-yl)-2-(piperazin-1-yl)pyrazolo[1,5-a]pyrimidine-6-carboxamide], the activity at 10 µM worked out at 9%.

With `CN1CCN(c2cc3ncc(C(=O)N[C@H]4CCOc5ccccc54)cn3n2)CC1` [Example 69, (S)—N-(chroman-4-yl)-2-(4-methylpiperazin-1-yl)pyrazolo[1,5-a]pyrimidine-6-carboxamide], the activity at 10 µM stood at 7%.

As to `CCN1CCN(c2cc3ncc(C(=O)N[C@H]4CCOc5ccccc54)cn3n2)CC1` [Example 70, (S)—N-(chroman-4-yl)-2-(4-ethylpiperazin-1-y)pyrazolo[1,5-a]pyrimidine-6-carboxamide], the activity at 10 µM is 5%.

As to `CCN1CCN(c2cc3ncc(C(=O)NC4CCCCC4)cn3n2)CC1` [Example 73, N-cyclohexyl-2-(4-ethylpiperazin-1-yl)pyrazolo[1,5-a]pyrimidine-6-carboxamide], the activity at 10 µM is -3%.

For `CCN1CCN(c2cc3ncc(C(=O)N[C@H]4CCc5ccccc54)cn3n2)CC1` [Example 75, (S)—N-(2,3-dihydro-1H-inden-1-yl)-2-(4-ethylpiperazin-1-yl)pyrazolo[1,5-a]pyrimidine-6-carboxamide], the activity at 10 µM was determined as 19%.

With `CN1CCN(c2cc3ncc(C(=O)NC4CCCC4)cn3n2)CC1` [Example 76, N-cyclopentyl-2-(4-methylpiperazin-1-yl)pyrazolo[1,5-a]pyrimidine-6-carboxamide], the activity at 10 µM came to 9%.

`CN1CCN(c2cc3ncc(C(=O)NC4CCCCC4)cn3n2)CC1` [Example 77, N-cyclohexyl-2-(4-methylpiperazin-1-yl)pyrazolo[1,5-a]pyrimidine-6-carboxamide]: the activity at 10 µM amounted to 0%.
